Values quoted from earlier work as cited in US5840324A, “Antiparasitic compositions” (Commonwealth Scientific and Industrial Organisation, priority 1993, dated 1998).

Key:
[1] = for time of maximum concentration in the bloodstream: after oral administration; for absorption: conventional dosing; for activity of metabolic products: degradation products of absorbed compound

SMILES | absorption of ABZ in the abomasum | time of maximum concentration in the bloodstream [1] [h] | absorption [1] | activity of metabolic products [1] | excretion of absorbed drug ([1]; in vivo) | metabolism ([1]; in vivo) | association with plasma albumin (plasma albumin) | retention in the bloodstream at efficacious levels ([1]; against blood-consuming parasites) | dose lost in faeces ([1]; in vivo)
CCCSc1ccc2nc(NC(=O)OC)[nH]c2c1 [ABZ, [5-(propylthio)-1H-benzimidazol-2-yl]carbamic acid methyl ester] | virtually no absorption | – | – | – | – | – | – | – | –
Cc1ccsc1/C=C/C1=NCCCN1C [morantel, (E)-1,4,5,6-tetrahydro-1-methyl-2-[2-(3-methyl-2-thienyl)vinyl]-pyrimidine] | – | 2 to 4 | rapidly absorbed from the rumen | completely inactive | rapidly excreted, predominantly in urine | degraded at a rate consistent with first-pass metabolism | – | – | –
CN1CCCN=C1/C=C/c1cccs1 [pyrantel, 1,4,5,6-tetrahydro-1-methyl-2-[(E)-2-(2-thienyl)-vinyl]-pyrimidine-4,4'-methylenebis-(3-hydroxy-2-naphthoate)] | – | 2 to 4 | rapidly absorbed from the rumen | completely inactive | rapidly excreted, predominantly in urine | degraded at a rate consistent with first-pass metabolism | – | – | –
Cc1cc(C(C#N)c2ccc(Cl)cc2)c(Cl)cc1NC(=O)c1cc(I)cc(I)c1O (stereo not drawn) [closantel, 5'-chloro-4'-(4-chloro-α-cyanobenzyl)-3,5-diiodosalicyl-o-toluidide] | – | – | slowly absorbed | – | – | – | very strongly associate with plasma albumin | 3-4 weeks | about 50%
Cl.c1ccc([C@H]2CN3CCSC3=N2)cc1 [Levamisole, (-)-(S)-2,3,5,6-tetrahydro-6-phenylimidazo[2,1-b]thiazole hydrochloride] | – | 2 to 4 | rapidly absorbed from the rumen | – | rapidly excreted, predominantly in urine | rapidly metabolised | – | – | –
